Several values for one entry are separate records, joined by “and”; a condition that tells them apart may be missing. Identical values can stand only once.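 Growth conditions: 96-well plates. Treatment: test compound, 48 hours, 5 concentrations. Analysis: linear interpolation between bracketing concentrations; unreached endpoints set to highest concentration. The concentration for 50% growth inhibition is given as GI50. TGI: total growth inhibition.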
Experiments:
Assay in all cases: NCI-60 cell line screen, 48 h
[1] = system: SW-620 colon
[2] = system: LOX IMVI melanoma
[3] = system: SNB-75 CNS
[4] = system: A549 NSCLC
[5] = system: SK-MEL-2 melanoma
[6] = system: UO-31 renal
[7] = system: HOP-62 NSCLC
[8] = system: HL-60(TB) leukemia
[9] = system: ACHN renal
[10] = system: UACC-62 melanoma

Row | Structure (SMILES) | GI50 [1] [µM] | TGI [1] [µM] | GI50 [2] [µM] | TGI [2] | GI50 [3] [µM] | TGI [3] | GI50 [4] [µM] | TGI [4] [µM] | GI50 [5] [µM] | TGI [5] | GI50 [6] [µM] | TGI [6] [µM] | GI50 [7] [µM] | TGI [7] [µM] | GI50 [8] [µM] | TGI [8] [µM] | GI50 [9] [µM] | TGI [9] [µM] | GI50 [10] [µM] | TGI [10]
1 | C[C@]12CC[C@@H]3c4ccc(Oc5nc(N6CC6)nc(N6CC6)n5)cc4CC[C@H]3[C@@H]1CCC2=O | 2.26 | 18.5 | 1.37 | 3.1 µM | 2.55 | 14.9 µM | 1.5 | 12.8 | 3.16 | 8.97 µM | 2.68 | 13.2 | 2.23 | 15.4 | 0.529 | 3.26 | 1.13 | 13 | – | –
2 | Cc1cc(C2CCCCC2)n(O)c(=O)c1 | 3.38 | > 100 | 0.757 | 80.3 µM and 80.1 µM | 1.96 | > 100 µM and 58.1 µM | 1.34 | > 100 | 10.5 | > 100 µM and 65.6 µM | 0.552 | > 100 | 0.913 | 40 | – | 10.1 | 1.06 | > 100 | 0.873 | 8.85 µM and 18.6 µM
3 | Nc1c(-c2ccc(Br)cc2)[n+]([O-])c2ccccc2[n+]1[O-] | – | > 100 | – | – | – | > 100 µM | – | > 100 | – | > 100 µM | – | > 100 | – | > 100 | – | > 100 | – | > 100 | – | –
4 | CSc1ccc(/C=C2/C[N+](C)(C)C/C(=C/c3ccc(SC)cc3)C2=O)cc1 | – | 28.1 | – | – | – | 62.4 µM | – | > 100 | – | 36.2 µM | – | > 100 | – | – | – | 9.82 | – | > 100 | – | –
5 | CCOC(=O)NC(=O)c1cn(CCCOC(=O)NCCCCCCNC(=O)OCCCn2c(=O)c(C(=O)NC(=O)OCC)cn(C)c2=O)c(=O)n(C)c1=O | – | > 100 | – | > 100 µM | – | 93.9 µM | – | > 100 | – | > 100 µM | – | > 100 | – | – | – | > 100 | – | > 100 | – | > 100 µM
6 | CCc1cccc(C)c1NC(C)=O | – | > 100 | – | – | – | > 100 µM | – | > 100 | – | > 100 µM | – | > 100 | – | > 100 | – | > 100 | – | > 100 | – | > 100 µM
7 | CCOC(=O)[C@H]1Nc2ccc(C)cc2C2c3ccccc3CC21 (some centres undefined) | – | > 100 | – | > 100 µM | – | > 100 µM | – | > 100 | – | > 100 µM | – | > 100 | – | > 100 | – | – | – | > 100 | – | > 100 µM
8 | CCCCC/C=C/C/C=C/CCCCCCCC1=NC(C)(C)CN1C(C)C | 1.6 | 2.99 | – | – | 1.44 | 2.87 µM | 1.77 | 3.2 | 1.85 | 3.35 µM | 1.21 | 2.45 | 1.58 | 3.17 | 1.48 | 3.43 | 1.7 | 3.07 | 1.69 | 3.12 µM
9 | Cc1cc(C)cc(Nc2cc(C)nc3nc(C(F)(F)F)nn23)c1 | > 100 | > 100 | > 100 | > 100 µM | 25.2 | > 100 µM | – | – | > 100 | > 100 µM | > 100 | > 100 | 44 | > 100 | > 100 | > 100 | 58.7 | > 100 | > 100 | > 100 µM
10 | COc1ccc(C2CC(=O)c3c(OC)cc(OC)cc3O2)cc1 (centres undefined) | > 100 | > 100 | > 100 | > 100 µM | > 100 | > 100 µM | > 100 | > 100 | > 100 | > 100 µM | > 100 | > 100 | > 100 | > 100 | – | – | > 100 | > 100 | > 100 | > 100 µM
11 | O=S(O)CCCCSSCCCCSSCCCCS(=O)O | – | > 100 | – | > 100 µM | – | > 100 µM | – | > 100 | – | > 100 µM | – | > 100 | – | – | – | 30.6 | – | > 100 | – | 55.3 µM
12 | N#CCCN(CCC#N)c1ccc(C(=O)NN)cc1 | – | > 100 | – | > 100 µM | – | > 100 µM | – | > 100 | – | – | – | > 100 | – | > 100 | – | > 100 | – | > 100 | – | > 100 µM
13 | Cc1cccc(C(C)(C)C)c1NC(=O)CCc1n[nH]c(=S)o1 | – | 34.1 | – | – | – | > 100 µM | – | > 100 | – | – | – | > 100 | – | > 100 | – | > 100 | – | > 100 | – | > 100 µM
14 | NCCCNCCSSCCCCS(=O)O | – | > 100 | – | 21.6 µM | – | > 100 µM | – | > 100 | – | – | – | > 100 | – | > 100 | – | 40.7 | – | > 100 | – | 34.8 µM
15 | CCN(CC)C(=O)C/C(C)=N/NC(=O)c1ccncc1 | – | > 100 | – | > 100 µM | – | > 100 µM | – | > 100 | – | > 100 µM | – | > 100 | – | > 100 | – | > 100 | – | – | – | > 100 µM
16 | COc1ccc(S(=O)(=O)N(Cc2ccc3c(n2)C=CC(C)(C)O3)C2CCC2)cc1OC | < 0.01 | > 35.1 | < 0.01 | 0.176 µM | < 0.01 | 0.238 µM | 0.0233 | 1.66 | – | – | < 0.01 | 0.871 | < 0.01 | 1.29 | < 0.01 | 0.0249 | < 0.01 | 0.0734 | < 0.01 | 0.05 µM
17 | Cc1c2c(nn1-c1ccc(S(=O)(=O)/N=C3\SCC(=O)N3C(=O)c3ccccc3)cc1)-c1ccccc1CC2 | > 100 | > 100 | > 100 | > 100 µM | – | – | > 100 | > 100 | > 100 | > 100 µM | 67.4 | > 100 | 33.5 | > 100 | 65.5 | > 100 | 24.6 | 70.2 | 18.7 | 37.6 µM
18 | O=C1C2=C(CC3C(C2)C3(Br)Br)C(=O)C2=C1CC1C(C2)C1(Br)Br (centres undefined) | – | – | – | > 100 µM | – | > 100 µM | – | > 100 | – | > 100 µM | – | > 100 | – | > 100 | – | > 100 | – | > 100 | – | > 100 µM
19 | COc1cccc(N=Cc2c3ccccc3c(=O)n3c2oc2ccccc23)c1 | 38 | > 100 | 5.13 | 30.3 µM | 54.8 | > 100 µM | 4.84 | 23.7 | > 100 | > 100 µM | 42.7 | > 100 | 13.7 | 90.1 | – | – | 7.11 | 30 | 2.58 | 12.9 µM
20 | C#CC[C@]12CC(=O)CC[C@H]1CC(=O)C2 | – | > 100 | – | – | – | > 100 µM | – | > 100 | – | > 100 µM | – | > 100 | – | > 100 | – | > 100 | – | > 100 | – | > 100 µM
21 | COC(=O)C(=O)C(C(=O)C=C(C)C)C(=O)C(=O)Nc1ccc(Cl)cc1C (centres undefined) | – | – | – | > 100 µM | – | > 100 µM | – | > 100 | – | > 100 µM | – | > 100 | – | > 100 | – | > 100 | – | > 100 | – | > 100 µM
22 | CC(=O)NC(CCCN)C(=O)NCc1ccccc1 (centres undefined) | – | > 100 | – | > 100 µM | – | > 100 µM | – | > 100 | – | > 100 µM | – | > 100 | – | > 100 | – | – | – | > 100 | – | > 100 µM
23 | CC(C)=[CH][Sb]([Br])([CH]=C(C)C)([CH]=C(C)C)[CH]=C(C)C | 26.4 | > 100 | 31.6 | > 100 µM | – | – | 19.1 | > 100 | 15.4 | > 100 µM | 35.4 | > 100 | 40.3 | > 100 | 1.88 | 24.3 | 28.8 | > 100 | 11.1 | > 100 µM
24 | COc1ccc(-c2nc(-c3nc4ccc(C)cc4[nH]3)c3ccccn23)cc1 | 3.12 | > 100 | 3.03 | 7.73 µM | 5.49 | > 100 µM | 2.67 | > 100 | 2.51 | 5.71 µM | 1.67 | 6.09 | 3.72 | > 100 | 2.58 | 6.53 | – | – | 2.14 | 5.66 µM
25 | COC(=O)CSc1n[nH]c(-c2ccc(O)c([N+](=O)[O-])c2)n1 | – | > 100 | – | > 100 µM | – | > 100 µM | – | > 100 | – | > 100 µM | – | > 100 | – | – | – | > 100 | – | > 100 | – | > 100 µM
26 | COc1cc(C(=O)O[C@H](C(N)=O)[C@]2(C)CO2)c2ccccc2c1 | 18.8 | > 100 | 24.7 | 59.8 µM | – | – | 15.4 | 73 | 17.2 | 42.7 µM | 33.7 | > 100 | 5.72 | 17.9 | 40.9 | > 100 | 15.9 | 30.9 | 15.9 | 29.8 µM
27 | CC#CC(=O)Nc1ccccc1CC(c1c[nH]c2ccccc12)c1c[nH]c2ccccc12 | – | 36.2 | – | 33.8 µM | – | 38.8 µM | – | 57.5 | – | 34.4 µM | – | 25.4 | – | 35.9 | – | 32.1 | – | – | – | 28.3 µM

Reference: PubChem BioAssay (NCI)
